Results on 16 compounds are retold here after ChEMBL document CHEMBL1800007, “Synthesis, activity, and structural analysis of novel α-hydroxytropolone inhibitors of human immunodeficiency virus reverse transcriptase-associated ribonuclease H” (J Med Chem, 2011).

Molecules are shown by their SMILES. Calls of active or inactive are those of the source. No cut-off for these calls is given here.

For orientation: CC50 means the concentration that lowers cell viability or growth by half. Low readings indicate greater toxicity to the cells, high ones lower toxicity to the cells. Usually EC50 stands for the concentration that produces a half-maximal response. The IC50 is the midpoint of a concentration-inhibition curve.

The test system of data set [1] is CEM-SS. The data set can be described thus: (§1) Cytotoxicity against human CEM-SS cells. It is filed as cell-based. As to conditions: cem-ss.
Data set [2] deals with Human immunodeficiency virus 1. As to conditions: at 20 µM.
Description: Inhibition of DNA dependent DNA polymerase activity of his6-tagged HIV1 HXB2 reverse transcriptase p66 D549A/p51 mutant expressed in Escherichia coli at 20 uM using fluorescently tagged duplex DNA substrate by PAGE and fluorescent imaging method
Data set [3] relates to Human immunodeficiency virus 1. As to conditions: at 20 µM. The source holds these as a separate data set.
Description: Inhibition of DNA dependent DNA polymerase activity of his6-tagged HIV1 HXB2 reverse transcriptase p66 E478Q/p51 mutant expressed in Escherichia coli at 20 uM using fluorescently tagged duplex DNA substrate by PAGE and fluorescent imaging method
The target in data set [4] is Human immunodeficiency virus type 1 reverse transcriptase (Human immunodeficiency virus 1) (UniProt Q72547). As to conditions: HXB2, at 20 µM.
Description: Inhibition of DNA dependent DNA polymerase activity of his6-tagged HIV1 HXB2 reverse transcriptase p66/p51 expressed in Escherichia coli at 20 uM using fluorescently tagged duplex DNA substrate by PAGE and fluorescent imaging method
Data set [5] relates to Human immunodeficiency virus 1. The data set can be described thus: Antiviral activity against HIV1 RF infected in human CEM-SS cells assessed as protection against virus-induced cytopathic effect. The data set is classed as functional, organism-based. (In general: Damage to the host cells serves as the signal in cytopathic effect assays.)
For data set [6], the target named is Human immunodeficiency virus type 1 reverse transcriptase (Human immunodeficiency virus 1, UniProt Q72547). In words: Inhibition of RNase H activity of his6-tagged HIV1 HXB2 reverse transcriptase p66/p51 expressed in Escherichia coli assessed as substrate cleavage at polypurine tract by PAGE-based fluorescent imaging method.
Data set [7] can be described thus: as §1. It is filed as cell-based. As to conditions: CEM-SS cells.
The nature of data set [8]: Therapeutic index, CC50 for human CEM-SS cells to EC50 for HIV1 RF. It is filed as cell-based.
[9] abbreviates: Human immunodeficiency virus 1, RF, CEM-SS, read-out: EC50.

Take `Cc1cc(O)c(=O)c(O)c2c1C[C@@H](C(C)(O)Cn1ccnc1)CC2` (mixture of isomers): the CC50 in data set [1] was > 50 µM. The inhibition result in data set [2], in data set [3] and in data set [4] was “inactive” in each case. In addition, in data set [5] (setting [9]), the EC50 stood at 42.1 µM.
On to `Cc1cc(O)c(=O)c(O)c2c1C[C@@H](C(C)(O)CSc1ccccc1)CC2` (mixture of isomers), for which the CC50 in data set [1] turned out to be 17.8 µM. Moreover, the inhibition result in data set [2] and in data set [3] was “inactive” each time. In addition, in data set [6], the IC50 was determined as 0.93 µM. In addition, the EC50 in data set [5] (setting [9]) was 11.5 µM.
Compound `Cc1cc(O)c(=O)c(O)c2c1C[C@@H](C(C)(O)CNc1ccccc1)CC2` (mixture of isomers) returned a CC50 in data set [1] of 31.7 µM. Moreover, the inhibition entry in data set [2] and in data set [3] was “Active” throughout. Further, in data set [6], the IC50 came out at 1.2 µM. Further, the EC50 in data set [5] (setting [9]) stood at 7.4 µM.
As for `CCS(=O)(=O)CC(C)(O)[C@H]1CCc2c(c(C)cc(O)c(=O)c2O)C1` (mixture of isomers), in data set [1], the CC50 was 10.4 µM. The inhibition result in data set [2] and in data set [3] was “inactive” each time. Further, the IC50 in data set [6] amounted to 0.24 µM. Moreover, the “inhibition (INH)” value in data set [5] is <50%.
In the case of `CCN(CC)CC(C)(O)[C@H]1CCc2c(c(C)cc(O)c(=O)c2O)C1` (mixture of isomers), the CC50 in data set [1] was > 50 µM. Also, the inhibition entry in data set [2], in data set [3] and in data set [4] was “inactive” in each case. In addition, the IC50 in data set [6] was determined as 0.5 µM. Besides, the “inhibition (INH)” value in data set [5] is <50%.
`Cc1cc(O)c(=O)c(O)c2c1C[C@@H](C(C)NCc1ccccc1)CC2` (mixture of isomers): the CC50 in data set [1] was 16.7 µM. Moreover, the inhibition entry in data set [2] and in data set [3] was “inactive” each time. For the same compound, the IC50 in data set [6] came out at 0.96 µM. Further, in data set [5] (setting [9]), the EC50 is 10.6 µM.
On to `Cc1cc(O)c(=O)c(O)c2c1C[C@@H](C(C)(O)C[S+]([O-])c1ccccc1)CC2` (mixture of isomers), for which the CC50 in data set [1] was > 50 µM. For the same compound, the inhibition entry in data set [2] and in data set [3] was “Active” in each case. Also, in data set [6], the IC50 came out at 1.3 µM. In addition, the EC50 in data set [5] (setting [9]) turned out to be 14.5 µM.
For the compound `Cc1cc(O)c(=O)c(O)c2c1C[C@@H](C(C)(O)CNCc1ccccc1F)CC2` (mixture of isomers), in data set [1], the CC50 was > 50 µM. Further, the inhibition entry in data set [2] and in data set [3] was “inactive” in each case. Further, the IC50 in data set [6] amounted to 1.2 µM. Also, the EC50 entry in data set [5] (cem-ss) is recorded as “Not Active”.
`CC(C)c1ccc(O)c(=O)c(O)c1` [BETA-THUJAPLICINOL] showed a CC50 in data set [7] of 2.3 µM. Also, the inhibition entry in data set [2], in data set [3] and in data set [4] was “inactive” each time. Moreover, the IC50 in data set [6] was 0.21 µM. Besides, the EC50 entry in data set [5] (cem-ss) was “Not Active”.
Consider `Cc1cc(O)c(=O)c(O)c2c1C[C@@H](C(C)(O)CSCc1ccccc1)CC2` (mixture of isomers), for which the CC50 in data set [1] amounted to 17.4 µM. Also, the inhibition entry in data set [2] and in data set [3] was “inactive” in each case. Besides, in data set [6], the IC50 came out at 1.3 µM. Moreover, the EC50 in data set [5] (setting [9]) worked out at 4.2 µM.
Compound `CCSCC(C)(O)[C@H]1CCc2c(c(C)cc(O)c(=O)c2O)C1` (mixture of isomers) showed a CC50 in data set [1] of 25.8 µM. Moreover, the inhibition result in data set [2] and in data set [3] was “inactive” throughout. The IC50 in data set [6] amounted to 0.38 µM. Further, the “inhibition (INH)” value in data set [5] is <50%.
For the compound `CC(=O)Oc1cc(C)c2c(c(OC(C)=O)c1=O)CC[C@H](C(C)(O)CO)C2` (mixture of isomers), in data set [7], the CC50 is > 50 µM. Also, the inhibition entry in data set [2], in data set [3] and in data set [4] was “inactive” throughout. For the same compound, the IC50 in data set [6] amounted to 1.9 µM. Also, the EC50 result in data set [5] (cem-ss) is reported as “Not Active”.
As to `C=C(C)[C@H]1CCc2c(c(C)cc(O)c(=O)c2O)C1`, the inhibition entry in data set [2], in data set [3] and in data set [4] was “inactive” each time. Moreover, the IC50 in data set [6] stood at 0.6 µM. For the same compound, in data set [5] (cem-ss), the EC50 result is “Not Active”.
For `Cc1cc(O)c(=O)c(O)c2c1C[C@@H](C(C)(O)CS(=O)(=O)c1ccccc1)CC2` (mixture of isomers), the CC50 in data set [1] is > 50 µM. Further, the inhibition entry in data set [2] and in data set [3] was “inactive” each time. Further, the IC50 in data set [6] was 0.51 µM. In addition, the EC50 in data set [5] (setting [9]) is 21.2 µM.
Regarding `Cc1cc(O)c(=O)c(O)c2c1C[C@@H](C(C)(O)CN1CCCCC1)CC2` (mixture of isomers), in data set [1], the CC50 was > 50 µM. Besides, the inhibition result in data set [2] and in data set [3] was “inactive” each time. Also, in data set [6], the IC50 was determined as 0.82 µM. The selectivity ratio in data set [8] is 4.9. Also, in data set [5] (setting [9]), the EC50 is 10.2 µM.
Take `Cc1cc(O)c(=O)c(O)c2c1C[C@@H](C(C)O)CC2` (mixture of isomers): the CC50 in data set [1] was 26.1 µM. For the same compound, the inhibition result in data set [2] and in data set [3] was “inactive” each time. For the same compound, the IC50 in data set [6] was 0.68 µM. The EC50 in data set [5] (setting [9]) is 6.9 µM.
